For orientation: CC50 means the concentration giving 50% cytotoxicity.

The structures appear in SMILES notation. pEC50: −log10 of the molar value. “Also recorded” adds a separate entry of the source. Counter-ions that a name gives are not always drawn. Like-named read-outs stand apart in the source and are kept apart here.

Consider twelve compounds from patent US6638919B2, “Antiviral purine derivatives” (University College Cardiff Consultants Limited, priority 2001, dated 2003).

Data set [1] relates to HIV-2. To be noted: Table II, known data disclosed in PCT/GB96/00580; read-out: EC50/μM HIV-2 CEM; cited from earlier work.
The test system of data set [2] is CEM cells. The conditions noted are these: cited from earlier work.
For data set [3], the system named is HIV-1. The conditions noted are these: read-out: EC50/μM HIV-1 CEM; Table II, known data disclosed in PCT/GB96/00580; cited from earlier work.
The nature of data set [4]: Biological stability in heparinised human plasma. To be noted: for Half-life / % Remaining at 4 hours: heparinised human plasma, 37° C.
Experimental: Each compound was incubated in normal heparinised human plasma at 37° C. for 4 hours. […] Drug concentrations were then determined by LC/MS/MS analysis using standard methods.
Data set [5] in a line: Acid stability, dilute HCl pH1, simulated stomach conditions. The class given is physicochemical. To be noted: 0.1N HCl pH1, 25° C. The method, then: Compounds were tested for their stability towards acid-mediated hydrolytic decomposition employing a test designed to simulate stomach conditions. Each compound was incubated in dilute HCl of pH1 for 24 hours at 25° C. 0.3 mg of compound were added to 1 mL of 0.1N HCl at 25° C. HPLC was run immediately for time=0 and at intervals up to approximately 24 hours.

The subject of data set [6] is CEM cells. The experiment in a line: Toxicity to mock-infected CEM cells (CC50). The data set is classed as cell-based. The conditions noted are these: Table III; toxicity to CEM cells; read-out: CC50 CEN. On the procedure: (§1) Then 100 μL of the infected cell suspension was transferred to microtiter plate wells and mixed with 100 μL of the appropriate dilutions of the test compounds.
(§2) CC50 CEM: CC50 in μM for toxicity to CEM cells.
(§3) CC50 CEM: CC50 μM for toxicity to CEM cells

The nature of a further data set: Solid type of salt forms. The class given is physicochemical.
Data set [7] can be described thus: Solution stability of salt forms. The conditions noted are these: % of parent (AUC) after 27 hr at room temperature. The data set is classed as physicochemical. The source says:
(§4) The solubility and solution/solid state stability of three salt forms of (1S, 4R)-4-[2-amino-5(cyclopropylamino)-9(H)-purin-9-yl]-2-cyclopentene-1-methanol O-(phenyl ethoxy-L-alaninyl) phosphate

Data set [8] deals with HIV-2. The experiment in a line: Inhibition of HIV-2 giant cell formation in CEM cells. The data set is classed as cell-based. To be noted: Table III, EC50 for inhibition of HIV-2 in CEM cells, read-out: HIV2 CBM. The method, then: as §1
HIV1 CEM: EC50 in μM for inhibition of […] in CEM cells.
HIV2 CEM: EC50 in μM for inhibition of HIV-2 in CEM cells

For data set [9], the system named is HIV-1. In words: Inhibition of HIV-1 giant cell formation in CEM cells. The class given is cell-based. To be noted: Table III, EC50 for inhibition of HIV1 in CEM cells, read-out: HIV1 CBM. On the procedure:
as §1
HIV 1 CEM: EC50 in μM for inhibition of HIV1 in CEM cells

Data set [10] is described as follows: Solid state stability of salt forms. The class given is physicochemical. To be noted: % of parent (AUC) after two weeks at 60° C.
From the text: as §4

Data set [11] has as its system HIV-2. In words: Inhibition of HIV-2 in CEM.TK- cells. The data set is classed as cell-based. To be noted: read-out: HIV2 CEM. TK. The method, then:
Cells were infected with HIV-1 as previously described [Balzarini et al. AIDS (1991), 5, 21-28]. Briefly, 5×10^5 cells per milliliter were infected with HIV-1 or HV-2 at 100 CClD50 (50% cell culture infective dose) per milliliter of cell suspension. Then 100 μL of the infected cell suspension was transferred to microtiter plate wells and mixed with 100 μL of the appropriate dilutions of the test compounds. After 4 days giant cell formation was recorded microscopically in the HIV-infected cell cultures [CEM].
HIV2CEM.TK- EC50 μM for inhibition of IV-2 in CEM=cells

The subject of data set [12] is MSV. The experiment in a line: Inhibition of MSV. The class given is cell-based. The conditions noted are these: Table III; inhibition of MSV; read-out: EC50 MSV. On the procedure:
EC50 MSV: EC50 μM for inhibition of MSV

A short description of data set [13]: Toxicity to mock-infected CEM cells (CC50). To be noted: human; Table III; toxicity to CEM cells; read-out: CC50 CEN. The data set is classed as cell-based. On the procedure: as §1, §2, §3
Data set [14] relates to MSV. The experiment in a line: Minimum cytotoxic concentration in MSV assay. The class given is cell-based. The conditions noted are these: Table III. The source says:
MCC MSV: minimum cytotoxic concentration in MSV essay.

Setting [15] is: Table III, EC50 for inhibition of HIV-2 in CEM.TK- cells.
[16] abbreviates: Human immunodeficiency virus 2, CCRF-CEM.
The mark [17] stands for this setting: Human immunodeficiency virus 1, CCRF-CEM.
[18] abbreviates: Human immunodeficiency virus 2, CEM-TK(-).

Take `CCOC(=O)[C@H](C)NP(=O)(OC[C@@H]1C=C[C@H](n2cc(C)c(=O)[nH]c2=O)O1)Oc1ccccc1` (some centres unmarked) [Compound 951, 2′, 3′-dideoxy-2′, 3′-didehydrothymidine 5′-(phenylexthoxyalaninyl) phosphoramidate]: the EC50 with HIV-2 [1] was 0.07 µM; in the data set with HIV-1 [3] it was 0.1 µM. Further, the 50% cytotoxic concentration (CC50) in the data set on CEM cells [2] was 5500 nM.

With `COC(=O)[C@H](C)NP(=O)(OC[C@@H]1C=C[C@H](n2cnc3c(N)ncnc32)O1)Oc1ccccc1` (some centres unmarked) [Compound 1001, 2′, 3′-dideoxy-2′, 3′-didehydroadenosine-5′-(phenylmethoxyalaninyl) phosphate], in data set [4], the “Half-life” value was determined as 4.6 h and the “% Remaining at 4 hours” value is 52%. Besides, in data set [5], the “time to disappearance in acid” value was below 1 min. Also, the “Compound left (%)” value in data set [5] (time 0 hr) is 0%. In addition, the “Compound left (%)” value in data set [5] (time 17 hr) was 0%.

As for `COC(=O)C[C@H](NP(=O)(OC[C@@H]1C=C[C@H](n2cc(C)c(=O)[nH]c2=O)O1)Oc1ccccc1)C(=O)OC` (some centres unmarked) [Compound 1078, 2′, 3′-dideoxy-2′, 3′-didehydrothymidine 5′-(phenyldimethoxyaspartyl) phosphoramidate], the EC50 in the data set with HIV-2 [1] was 0.65 µM; in the data set on HIV-1 [3], 0.55 µM. In addition, the CC50 with CEM cells [2] is 209000 nM.

For the compound `CCOC(=O)[C@H](C)NP(=O)(OC[C@@H]1C=C[C@H](n2cnc3c(NC4CC4)nc(N)nc32)C1)Oc1ccccc1` (stereo partly drawn) [Compound 1587, (1S,4R)-4-(2-amino-6cyclopropylamino-9H-purin-9-yl)-2-cyclopentene-1-methaanol O-[phenyl-(ethoxy-L-alaninyl)]-phosphate], in the data set with CEM cells [6], the cytotoxic concentration (CC50) stood at 12100 nM. Besides, the “Solid Type” value in “Solid type of salt forms” is given as “Amorphous; also recorded: Hygroscopic”. Further, in data set [7], the “Stability (%) 0.1 N HCl” value was 69.1%, the “Stability (%) HPMC/Tween” value is listed as 97.6% and the “Stability (%) PBS” value is given as 98.5%. In the data set with HIV-2 [8], the pEC50 is 7.22. For the same compound, in data set [4], the “Half-life” value amounted to 26 h and the “% Remaining at 4 hours” value came to 91%. In addition, in data set [4] (human plasma, Table V data), the “stability advantage over each of compounds 1001 and 1093” value was found to be 6 fold. Moreover, in the data set on HIV-1 [9], the pEC50 was 7.15. The “acid stability in words” value in data set [5] (after 22 hours) was “remained in tact”. For the same compound, the “Compound left (%)” value in data set [5] (time 0 hr) is reported as 100%. Moreover, the “Compound left (%)” value in data set [5] (time 22 hr) is listed as 77%. The “Solid State Stability (%)” value in data set [10] stood at 93.7%.

Regarding `C[C@@H](NP(=O)(O)OC[C@@H]1C=C[C@H](n2cnc3c(NC4CC4)nc(N)nc32)C1)C(=O)O` [Compound 1595, (1S,4R)-4-(2-amino-6-cyclopropylamino-9H-purin-9-yl)-2-cyclopentene-1-methanol O-(D-alaninyl)-phosphate diammonium salt], the cytotoxic concentration (CC50) in the data set with CEM cells [6] is 213000 nM. In addition, the pEC50 was 5.92 in the data set with HIV-2 [8] and 6.10 in the data set with HIV-2 [11] (setting [15]).

On to `COC(=O)[C@H](C)NP(=O)(OC[C@@H]1C=C[C@H](n2cnc3c(NC4CC4)nc(N)nc32)C1)Oc1ccc(Cl)cc1` (stereo partly drawn) [Compound 1620, (1S,4R)-4-(2-amino-6-cyclopropylamino-9H-purin-^9-yl)-2-cyclopentene-1-methanol O-[4-chlorophenyl-(methoxy-L-alaninyl)]-phosphate], for which the CC50 with CEM cells [6] amounted to 4700 nM. The pEC50 in the data set on HIV-2 [8] was 7.20; in the data set with HIV-1 [9], 7.85; with HIV-2 [11] (setting [15]), 7.89.

`COC(=O)C(NP(=O)(OC[C@@H]1C=CC(n2cnc3c(NC4CC4)nc(N)nc32)C1)Oc1ccccc1)C(C)C` (some centres unmarked) [Compound 1666]: the pEC50 is 4.93 in the data set with MSV [12], 5.40 with HIV-2 [8] (setting [16]), 5.46 in the data set on HIV-1 [9] (setting [17]) and 5.46 in the data set on HIV-2 [11] (setting [18]). Besides, the CC50 in data set [13] was 54100 nM. Besides, the MCCMSV in the data set with MSV [14] is recorded as above 20.

`CCC(CC)OC(=O)[C@H](C)NP(=O)(OC[C@@H]1C=CC(n2cnc3c(NC4CC4)nc(N)nc32)C1)Oc1ccccc1` (some centres unmarked) [Compound 1685]: the pEC50 in the data set on MSV [12] is 5.00; in the data set with HIV-2 [8] (setting [16]) it was 5.70; in the data set on HIV-1 [9] (setting [17]), 5.80; in the data set with HIV-2 [11] (setting [18]), 4.90. Further, the half-maximal cytotoxic concentration (CC50) in data set [13] was 19700 nM. Also, the MCCMSV in the data set on MSV [14] is above 20.

As for `C[C@H](NP(=O)(OC[C@@H]1C=CC(n2cnc3c(NC4CC4)nc(N)nc32)C1)Oc1ccccc1)C(=O)OCCC(C)(C)C` (stereo partly drawn) [Compound 1687, (1S,4R)-4-(2-amino6cyclopropylamino-9H-purin-9-yl)-2-cyclopentene-1-methanol O-[phenyl(3,3-dimethyl-]-butoxy-L-alaninyl)phosphate], the pEC50 with MSV [12] is 5.65; with HIV-2 [8] (setting [16]), 6.70; with HIV-1 [9] (setting [17]) it was 6.70; with HIV-2 [11] (setting [18]), 6.85. Moreover, the cytotoxic concentration (CC50) in data set [13] amounted to 10200 nM. Further, in the data set with MSV [14], the MCCMSV is listed as above 4.

Consider `CCOC(=O)[C@H](C)NP(=O)(OC[C@@H]1C=C[C@H](n2cnc3c(NC4CC4)nc(N)nc32)C1)Oc1ccccc1.O=C(O)CCC(=O)O` (stereo partly drawn) [Example 1, (1S,4R)-442-Amino-6-cyclopropylamino-9(purin-9-yl)-2-cyclopentene-1-methanol O-(phenylethoxy-L-alaninyl) phosphate Succinate Salt], for which the “Solid Type” value in the data set “Solid type of salt forms” was “crystals”. In [7], the “Stability (%) 0.1 N HCl” value worked out at 66.0%, the “Stability (%) HPMC/Tween” value amounted to 98.8% and the “Stability (%) PBS” value is 99.8%. Also, the “Solid State Stability (%)” value in data set [10] was found to be 99.6%.

For the compound `CCOC(=O)[C@H](C)NP(=O)(OC[C@@H]1C=C[C@H](n2cnc3c(NC4CC4)nc(N)nc32)C1)Oc1ccccc1.O=C(O)/C=C/C(=O)O` (stereo partly drawn) [Example 3, (1S,4R)-4-(2-Amino-6cyclopropylamino-9(H)-purin-9-yl)-2-cyclopentene-1-methanol O-(phenylethoxy-L-alaninyl) phosphate Fumarate Salt], in the data set “Solid type of salt forms”, the “Solid Type” value is “crystals”. Also, in data set [7], the “Stability (%) 0.1 N HCl” value is 70.0%, the “Stability (%) HPMC/Tween” value came out at 98.3% and the “Stability (%) PBS” value is given as 98.5%. In addition, the “Solid State Stability (%)” value in data set [10] was 97.1%.

Regarding `CCOC(=O)[C@H](C)NP(=O)(OC[C@@H]1C=C[C@H](n2cnc3c(NC4CC4)nc(N)nc32)C1)Oc1ccccc1.O=C(O)CCCC(=O)O` (stereo partly drawn) [Example 4, (1S,4R)-4-(2-Amino-6-cyclopropylamino-9(H)-purin-9-yl)-2-cyclopenten-1-methanol O-(phenylethoxy-L-alaninyl) phosphate Glutarate Salt], the “Solid Type” value in “Solid type of salt forms” is “crystals”. In data set [7], the “Stability (%) 0.1 N HCl” value turned out to be 69.3%, the “Stability (%) HPMC/Tween” value is recorded as 98.6% and the “Stability (%) PBS” value is 99.9%. For the same compound, the “Solid State Stability (%)” value in [10] is on record as 98.9%.
